In patent publication CN103910677A, “紫堇定碱衍生物的盐” (Shanghai Yizhi Pharmaceutical Technology Co Ltd, priority 2013, dated 2014):

Experiment: Stability in aqueous solution (extent of free base precipitation from an aqueous solution of the test compound)
Format: physicochemical
Settings: known temperature and known period (not specified), 富马酸盐

COc1cc2c3c(c1O)-c1c(ccc(OC)c1OC)C[C@@H]3N(C)CC2 [Ⅱˉ表示的富马酸根的式(Ⅲ)化合物, 紫堇定碱富马酸盐]
aqueous solution stability: 特别稳定 and 异常的稳定
